Laboratory results as given in a melting point compilation (Tetko et al.; mined from patent text by program, amines drawn as free bases though some values may be those of a salt).
Non-standard residues stand in square brackets, D forms with d. Residues, ends and D or L forms follow the SMILES beside them. ξ: configuration not given here. *: point of attachment. Boc = CC(C)(C)OC(=O)*; ξA = CC(N)C(=O)O

| Compound | melting point |
| --- | --- |
| Cc1ccc(C)c(SCCCC(=O)O)c1 | 61 to 62 °C |
| COC(=O)c1c(C)sc(C)c1N | 75 to 77 °C |
| CCN1C(=O)C=C(c2ccc(Cl)c(Cl)c2)C1=O | 138 to 141 °C |
| O=Cc1cnn(-c2cccc(C(F)(F)F)c2)c1 | 80 to 82 °C |
| Cc1cc(C=O)c(OCCCCOc2c(C=O)cc(C)cc2C=O)c(C=O)c1 | 205 °C |
| CN(C)n1cn[nH]c1=O | 127 °C |
| CC(=O)OC1CSC(Oc2ccc(-c3cccnc3F)nc2Cl)C(OC(C)=O)C1OC(C)=O (stereo unspecified) | 227 °C |
| COCCn1cc(C(=O)O)c2c(Cl)cccc21 | 142 to 145 °C |
| CCCCOc1c(N)c(=O)c1=O | 166 to 168 °C |
| C=C(F)C(C)(C)C(=O)Nc1ccc(Cl)cc1 | 75 to 76 °C |
| Nc1ccc(N2CCc3ccncc3C2)cc1 | > 220 °C |
| CC(=O)OC1CSC(Sc2ccccc2S(C)(=O)=O)C(OC(C)=O)C1OC(C)=O (stereo unspecified) | 209 °C |
| COC(=O)c1snc(-c2ccc(Cl)c(Cl)c2)c1C(=O)OC | 105 to 107 °C |
| COC(=O)P(=O)(OC)OC | 150 °C |
| Cc1oc(NC(=O)CCl)c(C#N)c1C | 114 °C |
| O=C(O)c1c[nH]c2cc(Cl)c([N+](=O)[O-])cc2c1=O | 294 to 297 °C |
| COC(=O)c1nc(-c2sccc2[N+](=O)[O-])n(C)c(=O)c1OC(=O)C(C)(C)C | 159 to 161 °C |
| CCn1c(C)nc2cc(C(F)(F)F)c(Cl)c(N)c21 | 176 to 178 °C |
| COc1c(O)cccc1C=O | 116 °C |
| Cc1nc2cc3c(cc2c(=O)[nH]1)OCCO3 | 275 °C |
| c1cnc(-c2n[nH]c(-c3cnccn3)n2)cn1 | 269 to 270 °C |
| CCN1CC2CN(CC)CC(C1)C2O (stereo unspecified) | 61.5 °C |
| CCN(CC)CCn1c(O)nc2cc(Cl)c(Cl)nc21 | 137 to 139 °C |

| Compound | melting point |
| --- | --- |
| Brc1ccc2[nH]cc(C3=CCNCC3)c2c1 | 202 to 204 °C |
| COC(=O)C12COc3cc(C(F)(F)F)ccc3C1=NN(C(=O)Nc1ccc(Cl)cn1)C2 (stereo unspecified) | 196 to 198 °C |
| C=Cn1cc(C(=O)O)c(=O)c2cc(Cl)c(N3CCNCC3)nc21 | 272 to 274 °C |
| COc1ccc(C2(C3CCCC3=O)CCC(C(=O)O)CC2)c2c1OCCO2 (stereo unspecified) | 200 to 201 °C |
| CC[C@H](C)CCCCc1cnc(-c2ccc(OC(C)C)cc2)nc1 | 47.2 to 47.7 °C |
| CC(C)(C)c1nc2cc(N3CCCCC3)c(N=C=S)cc2s1 | 112 to 114 °C |
| COC(=O)CNC(=O)C(C)NC(=O)CNC(=O)OC(C)(C)C (stereo not drawn) (Boc-Gly-[ξA]-Gly-OMe) | 98 to 100 °C |
| C[C@H](CI)[C@H]1CC[C@H]2[C@@H](O[Si](C)(C)C(C)(C)C)CCC[C@]12C | 40 to 41 °C |
| Cc1nnc(Cl)c2cc(O)ccc12 | > 260 °C |
| CC1=C(c2cccc(C(F)(F)F)c2)n2ncc(C#N)c2N(C(=O)CCl)C1 | 178 to 182 °C |
| CCCc1c(C(=O)C2CCCCC2)c2ccc(C(N)=O)cc2n1Cc1cc2c(cc1Cl)OCO2 | 209 to 211 °C |
| Cc1cccn2cc(CCl)nc12 | 115 to 117 °C |
| Cc1cccc(C)c1C(=O)Nc1cccc2c1CCN(C)C2 | 200 to 201 °C |
| O=C(OCC(Cl)(Cl)Cl)N1C2CCC1CC(Sc1ccc(Cl)cc1)C2 (stereo unspecified) | 70 to 71.5 °C |
| CN1[C@H]2CC[C@@H]1[C@@H](CO)[C@@H](c1ccc(F)cc1)C2 | 79 to 80 °C |
| CCOC(=O)c1cnn2c1nc(NC(C)CC)c1cnc3c(cnn3CC)c12 (stereo unspecified) | 94 to 97 °C |
| COc1ccc(N2CCN(c3c(C)c(C)c4c(c3C)C(O)(C3CCCCC3)C(C)(C)O4)CC2)cc1 (stereo unspecified) | 166 to 167 °C |
| CCCCN(CCCC)c1ccc(C=CC2=C(C#N)C(=C(C#N)C#N)OC2(C)C(F)(F)F)c(OC)c1 (stereo unspecified) | 211 to 213 °C |
| O=[N+]([O-])CS(=O)(=O)c1ccccc1C(F)(F)F | 80 °C |
| Cc1cc(O)n(C)c(=O)c1C#N | 285 °C |
| CCCCc1nc2c(c(=O)[nH]1)CN(C(=O)OCC[Si](C)(C)C)CC2 | 152 to 155 °C |
| Nc1ncnc2c1ncn2C1CC(O)C2CC21 (stereo unspecified) | 259 to 261 °C |
| CC(=O)Oc1ccc(C=CC(=O)O)cc1C=O | 205 to 207 °C |

The remaining lines, values ahead:

| melting point | Compound |
| --- | --- |
| 140 to 142 °C | CN1c2ccccc2C(c2ccccc2F)=Nc2cccnc21 |
| 83 to 86 °C | CS(=O)(=O)c1ccc(C(CC2CCCC2)C(=O)Nc2ccc(Br)cn2)cc1Br (stereo unspecified) |
| 110 to 112 °C | CC1=NCCc2c1n(-c1ccccc1)c1ccccc21 |
| 152 to 159 °C | O=C1OC2(CC(c3cccc(-c4ccccc4)c3)=NO2)c2ccccc21 (stereo unspecified) |
| 203 to 204 °C | COC(=O)c1ccccc1C=CC(=O)N1CCc2c([nH]c3ccccc23)C1c1ccc2c(c1)OCO2 (stereo unspecified) |
| 126 °C | CSc1cc(CCC(=O)OC(C)(C)C)cc(-c2nc(=O)c3ccccc3s2)n1 |
| 105 to 106 °C | CCC(CC)CNC(=O)c1cccc(CN2C(=O)C3(COc4cc5c(cc43)CCO5)c3ccccc32)c1 (stereo unspecified) |
| > 250 °C | COc1cc(-c2ccc(N)cc2C(=O)NCCNC(=O)c2cc(N)ccc2-c2cc(OC)c(OC)c(OC)c2)cc(OC)c1OC |
| 93 to 95 °C | COc1ccc2cc(C(=O)C(C)(C)c3ccccc3)oc2c1 |
| 70 °C | CCN(CC)C(=O)CCc1cc2ccccc2c(-c2ccccc2)n1 |
| 215 to 217 °C | COc1ccc(Cc2ccc3nc(N)nc(N)c3c2)cc1OC |
| 78 to 80 °C | COC(=O)CN1CCC(OC)(c2cccc(OCc3ccc4ccccc4c3)c2)C1 (stereo unspecified) |
| 164 to 165 °C | CC1CN(Cc2n[nH]c3ccccc23)CCN1c1ccccc1 (single isomer, unassigned; (+)) |
| 282 to 284 °C | CCn1ncc2c(NCc3cccnc3)c3ccccc3nc21 |
| 179 to 180 °C | Cc1cc2c(C)c(O)c(O)c(C(=O)O)c2cc1Cc1ccccc1 |
| 137 to 141 °C | CC(Oc1ccc(Oc2cnc3ccccc3n2)cc1)C(=O)O (stereo unspecified) |
| 266 to 268 °C | O=C1CCC(N2Cc3c(CNC(=O)c4cccc(Cl)c4)cccc3C2=O)C(=O)N1 (stereo unspecified) |
| 209 to 213 °C | O=C1CCN(c2ccccc2)N1CN1C(=O)c2ccccc2S1(=O)=O |
| 203 to 206 °C | COc1cc(C(=O)CS(=O)(=O)c2ccccc2)ccc1Cc1cn(C)c2ccc(NC(=O)NC3CCCC3)cc12 |
| 144 to 145 °C | CC(C)CCC(Sc1ccccc1)c1c(O)cc(-c2ccccc2)oc1=O (stereo unspecified) |
| 128 to 129 °C | CC(C)n1c(CCC2C[C@@H](O)CC(=O)O2)c(-c2ccc(F)cc2)c(-c2ccccc2)c1C(=O)Nc1ccccc1 (stereo partly specified) |
| 48 to 50 °C | COC(=O)/C=C/c1cc(-c2ccc(S(C)(=O)=O)cc2)n(CC2CCCCC2)n1 |
| 215 to 217 °C | CS(=O)(=O)N1C(=O)C2(COc3cc4c(cc32)OCO4)c2ccccc21 (stereo unspecified) |
| 246 to 247 °C | NC(=O)C(=O)Nc1nc(-c2cc(-c3ccccc3)on2)cs1 |
| 103 to 105 °C | CN(N=C(Cl)c1c(F)cccc1Cl)S(=O)(=O)c1ccccc1 |
| 173 to 175 °C | OCC1OC(n2cnc3c(NCC4Cc5cccc6cccc4c56)ncnc32)C(O)C1O (stereo unspecified) |
| 105 to 112 °C | Cc1cc(N)nc(C)c1-c1ccccc1 |
| 349 to 351 °C | O=c1[nH]c2ncc(-c3ccc(-c4ncc[nH]4)cc3)nc2n1CC1CCCCC1 |

| melting point | Compound |
| --- | --- |
| 178 to 179 °C | CC1(C)OC(c2ccc(S(C)(=O)=O)cc2)=C(c2cccc(F)c2)C1=O |
| 260 to 261 °C | CCOC(=O)c1cnc2sc(-c3ccc([N+](=O)[O-])cc3)c(C)c2c1O |
| 205 to 207 °C | COc1cc2c3c(nc4ccc(Cl)cc4c3c1)-c1ccccc1N2 |
| 217 to 219 °C | CC[C@H](C)[C@H](NS(=O)(=O)c1ccc(C)cc1)C(=O)N[C@H](CO)Cc1c[nH]c2ccccc12 |
| 131 to 133 °C | COc1ccc(C=CC(=O)O)cc1-c1cc2c(cc1OCc1cccc(O)c1)C(C)(C)CCC2(C)C |
| 208 °C | Cc1ccc2cccc(OCc3c(Cl)ccc(S(=O)(=O)N(C)Cc4cccc(C(N)=O)c4)c3Cl)c2n1 |
| 158 to 160 °C | Cc1cc(Cl)cc(C)c1NC(=O)Oc1ccccc1 |
| 239 to 242 °C | OC1CCN(CCCOc2ccc3cc(-c4n[nH]c5cc(-c6ccccc6)sc45)[nH]c3c2)CC1 |
| 280 °C | COc1ccc2c(c1)C(c1ccc(N)cc1)=Nn1c(nc(C)c1C)C2 |
| 142 to 143 °C | CN(CCF)C(=O)c1cc2ccccc2c(-c2ccccc2I)n1 |
| 172 to 173 °C | COc1ccc(C2(O)c3cccc(O)c3C(=O)c3c(O)cccc32)cc1 |
| 116 to 117 °C | c1ccc(NN2CCc3ccccc3C2)nc1 |
| 142 to 144 °C | O=C(Nc1ccc(-n2nc(C(F)(F)F)cc2C(F)(F)F)cc1)c1cccc(Cl)c1 |
| > 250 °C | N#Cc1cccc(C2=Nc3cc(O)c(-c4cc(F)ccc4F)cc3NC(=O)C2)c1 |
| 73 to 74 °C | N=C(Nc1ccc(CNCc2ccccc2)cc1)c1cccs1 |
| 84 to 86 °C | CN(C)CCOc1nccc(-c2c(-c3ccc(F)cc3)ncn2C2CCC(=O)CC2)n1 |
| 140 to 143 °C | O=C1C=CC(O)(c2nc3ccccc3s2)C(Cl)=C1 (stereo unspecified) |
| 141 to 142 °C | Cc1nnc(-c2ccc3occ(-c4ccc(SCc5ccccc5C#N)cc4)c3c2)o1 |
| 229 to 231 °C | O=C1NCc2c(-c3ccccc3)cccc2N1C1CCCCC1 |
| 129 to 131 °C | CCCC(Cl)COC(=O)c1ccc(-c2ccc(-c3ccc(C(=O)OCC(Cl)CCC)cc3)cc2)cc1 (stereo unspecified) |
| 296 to 300 °C | O=C(Nc1ccc(Sc2c(O)c3c(Cl)cc(Cl)cc3[nH]c2=O)cc1)c1ccco1 |
| 144 to 145 °C | c1ccc(CN2CCC3(CC2)SC(c2ccccc2)c2ccccc23)cc1 (stereo unspecified) |
| 131 to 132 °C | O=C(NCc1ccc(Cl)cc1)c1ccccc1S |
| 90.5 to 92 °C | COC(=O)c1ccccc1-c1cc(-c2ccc(C(F)(F)F)cc2)no1 |
| 231 to 232 °C | CS(=O)(=O)Nc1cc(OCCNC2CCCC2)ccc1C(=O)Nc1ccccc1 |
| 130 °C | COc1cc(N)c(Cl)cc1C(=O)N[C@H]1CCN(CC#N)C[C@H]1OC (relative stereo) |
| 99 to 101 °C | COc1ccc(C2=NN(C(C)(C)C)C(=O)[C@H]3CCCC[C@@H]23)cc1OC (relative stereo) |
